# Patent US11147798B2, “Use of carbamate compound for prevention, alleviation, or treatment of demyelinating disease” (SK BIOPHARMACEUTICALS CO., LTD., priority 2016, dated 2021)
# Where “and” joins values, the source holds several entries; their conditions need not be identical. Equal entries are not always repeated.
# Assays:
# [1] = tested on: Experimental Autoimmune Encephalomyelitis (EAE) model; assay: Systemic motor symptom alleviation (EAE clinical score) in an Experimental Autoimmune Encephalomyelitis (EAE) model; format: in vivo, male C57BL/6 mice; conditions: for EAE clinical score: mean±SEM
# Procedure: For this experiment, male C57BL/6 mice were purchased from Orient Bio, Inc. of Korea. The mice were placed in a wire mesh cage under conditions of ambient temperature of 20 to 24° C., relative humidity of 55 to 75%, an automatically controlled light-and-darkness cycle of 12 hours and free access to feed (purchased from Agri Brands Purina Korea, Inc.) and water. The mice were housed and maintained in accordance with the Laboratory Animal Care Standards of the Institutional Animal Care and Use Committee (IACUC). After about one week of stabilization, mice weighing 18 to 23 g were used in the experiment.
# To 100 mg of Mycobacterium tuberculosis H37RA (killed and desiccated; Difco, 231141, USA) which had been well triturated in mortar, was mixed 10 ml of Incomplete Freund's adjuvant (IFA; Difco, 263910, USA) to prepare 10 mg/ml of Complete Freund's adjuvant (CFA) storage solution, followed by refrigeration at 4° C. Myelin oligodendrocyte glycoprotein (MOG35-55; Peptron, Korea) was diluted with PBS (phosphate-buffered saline; Gibco, 10010, USA) to a final concentration of 2 mg/ml and stored at −20° C. (MOG35-55 storage solution).
# 50 μg of PTX (pertussis toxin, PTX; Sigma, P7208, USA) was dissolved in 500 μl of PBS to prepare 100 μg/ml of pertussis toxin (PTX) storage solution, followed by […] at 4° C. In the experiment, the PTX storage solution was diluted 50 times with PBS and used.
# On the first day of the experiment (Day-1), the EAE-inducing sample solution was administered to mice by subcutaneous injection at 200 μl per mouse. On the same day (Day-1) and two days later (Day-3), 200 μl of PTX solution was intraperitoneally administered to mice twice.
# The EAE clinical score is as follows.
# All data were expressed as mean±SEM. The EAE clinical scores in the group treated with the test compound were compared to those in the negative control vehicle group by date. Statistical analysis was performed using GraphPad Prism (ver. 4.0) program, and the differences between the two groups were analyzed by Student's t-test.
# [2] = tested on: Experimental Autoimmune Encephalomyelitis (EAE) model; assay: Pattern retinal conduction (pERG) amplitude in the EAE model; format: in vivo, female C57BL/6 mice; conditions: for Pattern retinal conduction amplitude (pERG amplitude), Mean ± SEM: measured 28 days after induction
# Procedure: (§1) For this experiment, female C57BL/6 mice were purchased from Janvier Labs of France and were maintained under conditions of temperature (22±1° C.), a light-and-darkness cycle of 12 hours and free access to water and food according to the protocol approved and investigated by the Animal Experiment Committee of Finland. All animals were kept isolated for a week after purchase and had time to adapt to the kennel. 11-week-old animals were used in the experiment. According to the criteria of the Animal Experiment Committee of Finland, in the case of a weight loss of 20% or more compared to the starting point, a degree of disease progression (clinical score) of 4 or more, or a failure in the righting reflex test in clinical score of 3, the experiment was stopped and animals were sacrificed for humanitarian purposes.
# (§2) To induce EAE, an inoculum was purchased from Hooke Laboratories of the United States: the inoculum contains 100 μg of MOG35-55 peptide and 200 μg of heat-inactivated Mycobacterium tuberculosis, both dissolved in 100 μl of mineral oil. 100 μl of the inoculum was injected subcutaneously into both high and low parts of the back of mice. 100 μl pertussis toxin was injected into the peritoneum of the mice twice, two hours after inoculation and after 24 hours.
# The test compound was dissolved in distilled water containing 30% polyethylene glycol 400 (PEG 400) and treated with an ultrasonic sonicator for 30 minutes. […]
# Pattern retinal conduction was measured two days before and 28 days after EAE induction. […] After performing the test, the results were analyzed using Matlab software (MathWorks, Natick, Mass.).
# (§3) Quantitative data were graphed (plotted) and analyzed using Prism software version 7 (GraphPad Software Inc. La Jolla, Calif.), the data were expressed as mean±standard deviation or standard error of mean. Comparisons with the vehicle group were analyzed using a t-test, and when the significance (p value) was less than 0.05, it was judged as a statistically significant difference.
# [3] = tested on: retinal ganglion cells; assay: Number of retinal ganglion cells per unit area in retinal whole mounts (Brn3a, RBPMS staining) in the EAE model; format: in vivo, female C57BL/6 mice
# Procedure: as §1, §2
# The test compound was dissolved in distilled water containing 30% polyethylene glycol 400 (PEG 400) and treated with an ultrasonic sonicator for 30 minutes. The dissolved compound (20 mg/kg or 30 mg/kg) or vehicle was injected into the peritoneum once daily from the 12th day after EAE induction.
# When the experiment was terminated or when the time of sacrifice for humanitarian purposes was reached, the mice were sacrificed by cardiac perfusion using a tissue fixative, and the eye and optic nerve were removed for further analysis.
# The retinal whole mount samples were extracted from both eyes and stained with antibodies of RBPMS (RNA binding protein with multiple splicing) and Brn3a (brain-specific homeobox/POU domain protein 3A) which are retinal ganglion cell markers, followed by analyzation in a stereological manner (Stereo Investigator, MicroBrightfield, VT, USA).
# as §3
smiles,measurement,setting,value
NC(=O)O[C@@H](Cn1ncnn1)c1ccccc1Cl [Test compound],EAE clinical score,[1]; Day-1~Day-9 (before dosing),0.0 ± 0.0
same,EAE clinical score,[1]; Day-10 (before dosing),0.5 ± 0.8
same,EAE clinical score,"[1]; Day-11, 10 ml/kg orally once a day from Day-11",0.8 ± 1.0
same,EAE clinical score,"[1]; Day-12, 10 ml/kg orally once a day from Day-11",1.2 ± 1.1
same,EAE clinical score,"[1]; Day-13, 10 ml/kg orally once a day from Day-11",1.3 ± 0.7
same,EAE clinical score,"[1]; Day-14, 10 ml/kg orally once a day from Day-11",2.0 ± 0.6
same,EAE clinical score,"[1]; Day-15, 10 ml/kg orally once a day from Day-11",1.9 ± 0.5
same,EAE clinical score,"[1]; Day-16, 10 ml/kg orally once a day from Day-11",1.9 ± 0.6
same,EAE clinical score,"[1]; Day-17, 10 ml/kg orally once a day from Day-11",2.1 ± 0.6
same,EAE clinical score,"[1]; Day-17, 10 ml/kg orally once a day from Day-11, listed as test compound",2.1±0.6
same,EAE clinical score,"[1]; Day-18, 10 ml/kg orally once a day from Day-11",1.8 ± 0.5
same,EAE clinical score,"[1]; Day-19, 10 ml/kg orally once a day from Day-11, p < 0.05 vs. vehicle",1.7 ± 0.6
same,Effect on EAE clinical symptoms compared to the vehicle group,"[1]; Day-19 to Day-22, orally once a day from Day-11",significant inhibition of EAE clinical symptoms
same,EAE clinical score,"[1]; Day-20, 10 ml/kg orally once a day from Day-11, p < 0.05 vs. vehicle",1.4 ± 0.5
same,EAE clinical score,"[1]; Day-21, 10 ml/kg orally once a day from Day-11, p < 0.01 vs. vehicle",1.3 ± 0.4
same,EAE clinical score,"[1]; Day-22, 10 ml/kg orally once a day from Day-11, p < 0.01 vs. vehicle",1.1 ± 0.5
same,"Pattern retinal conduction amplitude (pERG amplitude), Mean ± SEM",[2]; 20 mg/kg i.p. once daily from 12th day after EAE induction,7.803
same,Pattern retinal conduction amplitude compared to the baseline,"[2]; 20 mg/kg or 30 mg/kg, baseline measured two days before EAE induction",no significant difference
same,"Pattern retinal conduction amplitude (pERG amplitude), Mean ± SEM",[2]; 30 mg/kg i.p. once daily from 12th day after EAE induction,7.378
same,"Number of retinal ganglion cells per unit area, Brn3a (individual values)","[3]; 20 mg/kg i.p. once daily from 12th day after EAE induction, Brn3a marker",2675 and 1751 and 1443 and 2139 and 720 and 2221 and 1859 and 2489 and 1674 and 2035 and 2328 and 1389 and 1919
same,"Number of retinal ganglion cells per unit area, Brn3a, Mean ± SEM","[3]; 20 mg/kg i.p. once daily from 12th day after EAE induction, Brn3a marker, **p < 0.01 vs. vehicle",1895
same,"Number of retinal ganglion cells per unit area, RBPMS (individual values)","[3]; 20 mg/kg i.p. once daily from 12th day after EAE induction, RBPMS marker",3005 and 2251 and 1778 and 2976 and 1781 and 2297 and 2479.9735 and 2722 and 2362 and 2485.7761 and 2784.6808 and 2292 and 2567
same,"Number of retinal ganglion cells per unit area, RBPMS, Mean ± SEM","[3]; 20 mg/kg i.p. once daily from 12th day after EAE induction, RBPMS marker, **p < 0.01 vs. vehicle",2445
same,Number of retinal ganglion cells per unit area compared to the vehicle group,"[3]; 20 mg/kg, EAE-induced animals",larger number of retinal ganglion cells per unit area
